Assay results from patent US10202350B2, “MCT4 inhibitors for treating disease” (Vettore, LLC, priority 2015, dated 2019).

What was measured:
[1] = Metabolic stability in mouse liver microsomes; format: in vitro ADME; conditions: mouse liver microsomes 0.5 mg/mL, 2 μM compound; remaining percentage of parent at 60 min
Experimental: (§1) Metabolic Stability Assays The following are assays that may be used to evaluate the metabolic stability of compounds of Formula (I) in human or mouse microsomes. 1. […] Two separated experiments were performed as follows. a) With NADPH: 10 μL of 20 mg/mL liver microsomes and 40 μL of 10 mM NADPH were added to the incubations. […] The final concentration of microsomes was 0.5 mg/mL. 3. The reaction was started with the addition of 4 μL of 200 μM control compound or test compound solutions. Verapamil was used as positive control in this study. The final concentration of test compound or control compound was 2 μM. 4. Aliquots of 50 μL were taken from the reaction solution at 0, 15, 30, 45 and 60 min. […] Samples were centrifuged at 3, 220 g for 40 minutes. Aliquot of 90 μL of the supernatant was mixed with 90 μL of ultra-pure H2O and then used for LC-MS/MS analysis. 5. Data analysis. All calculations were carried out using Microsoft Excel. Peak areas were determined from extracted ion chromatograms. The slope value, k, was determined by linear regression of the natural logarithm of the remaining percentage of the parent drug vs. incubation time curve. The in vitro half-life (in vitro t½) was determined from the slope value: in vitro t1/2=−(0.693)/k.

MCT4 [2] = molecular target: T1, MCT4 (Homo sapiens (Human), UniProt O15427); assay: Lactate transport in MCT4-expressing MDA-MB-453 breast cancer cells (BCECF); format: cell-based; conditions: MDA-MB-453 cells stably expressing MCT4; 50 mM L-lactate
Experimental: Assay 1: Lactate Transport in MCT4-Expressing MDA-MB-453 Breast Cancer Cells. […] The following is an exemplary procedure for assaying MCT4 activity of the compounds of Formula (I). Preparing BCECF-Loaded Cells: […] The cells are pelleted (300 g, 5 min), washed once with 1 mL Tyrode's Solution, pH 7.4, re-pelleted (300 g, 5 min), and resuspended in 1 mL Tyrode's Solution, pH 7.4. Lactate Transport Assay: […] Fluorescence measurements are performed on a PerkinElmer LS55 fluorescence spectrometer with dual excitation wavelengths achieved using a filter wheel (FL Winlab program: Fast Filter; […] Emission 535). After establishing baseline BCECF fluorescence (around 10-20 s), 50 μL of 1 M sodium L-lactate (Sigma-Aldrich) is added to the cuvette (final concentration: 50 mM) and rapidly mixed.

MCT1 = MCT1 (Homo sapiens (Human), UniProt P53985); assay: MCT1-mediated lactate transport in BT20 breast cancer cells; format: cell-based; conditions: native MCT1, 10 mM L-lactate
Method in brief: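 BT20 cells loaded with BCECF-AM (5 min, 37 °C) were placed in Tyrode's Solution, pH 7.4, with compound or DMSO in a cuvette. After baseline, 10 mM L-lactate was added, and the transport rate came from an exponential fit to the fall in BCECF fluorescence (490/440 ratio).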

MCT4 [3] = molecular target: T1, MCT4; assay: MCT4-mediated lactate transport in MDA-MB-231 breast cancer cells; format: cell-based; conditions: MDA-MB-231 cells, native MCT4; 50 mM L-lactate
Method in brief: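 MDA-MB-231 cells loaded with BCECF-AM for 5 min at 37° C, then held in Tyrode's Solution, pH 7.4, with compound or 1% DMSO. After baseline, sodium L-lactate added to 50 mM final. Transport rate from exponential fit of the falling 490/440 BCECF ratio.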

[4] = Metabolic stability in human liver microsomes; format: in vitro ADME; conditions: human liver microsomes 0.5 mg/mL, 2 μM compound; remaining percentage of parent at 60 min
Experimental: as §1

MCT4 [5] = molecular target: T1, MCT4; assay: MCT4-mediated lactate transport in NCI-H358 lung adenocarcinoma cells; format: cell-based; conditions: native MCT4, 50 mM L-lactate
Experimental: Cells (˜7×10^6) are trypsinized (0.05% Trypsin-EDTA), pelleted (300 g, 5 min), and resuspended in 1 mL Tyrode's Solution, pH 7.4 (119 mM NaCl, 5 mM KCl, 25 mM HEPES, pH 7.4, 2 mM CaCl2, 2 mM MgCl2, 6 g/L glucose). 10 μL of a 30 mM DMSO stock of BCECF-AM ester (Life Technologies) is added and the cells are incubated at 37° C. for 5 min. The cells are pelleted (300 g, 5 min), washed once with 1 mL Tyrode's Solution, pH 7.4, re-pelleted (300 g, 5 min), and resuspended in 1 mL Tyrode's Solution, pH 7.4.
2.5 μL BCECF-loaded cells, along with either 10 μL DMSO or 100×compound in DMSO, are added to 937.5 μL of Tyrode's Solution in a quartz 1.0 mL cuvette (PerkinElmer, B0631116). Fluorescence measurements are performed on a PerkinElmer LS55 fluorescence spectrometer with dual excitation wavelengths achieved using a filter wheel (FL Winlab program: Fast Filter; Excitation 490/440; Emission 535). After establishing baseline BCECF fluorescence (around 10-20 s), 50 μL of 1 M sodium L-lactate (Sigma-Aldrich) is added to the cuvette (final concentration: 50 mM) and rapidly mixed. The time-dependent decrease in BCECF fluorescence (490/440 ratio) may be fit to an exponential decay curve (Prism GraphPad) to determine the rate of lactate transport.
Assay 2: MCT4-Mediated Lactate Transport in NCI-H358 Lung Adenocarcinoma Cells.
NCI-H358 lung adenocarcinoma cells may be used to measure MCT4 activity in cells with high native levels of MCT4 and low levels of MCT1 and are known to those with skill in the art. Preparation of BCECF-loaded cells and lactate transport activity may be determined as described for Assay 1.

T1 sequence (O15427 whole entry, looked up): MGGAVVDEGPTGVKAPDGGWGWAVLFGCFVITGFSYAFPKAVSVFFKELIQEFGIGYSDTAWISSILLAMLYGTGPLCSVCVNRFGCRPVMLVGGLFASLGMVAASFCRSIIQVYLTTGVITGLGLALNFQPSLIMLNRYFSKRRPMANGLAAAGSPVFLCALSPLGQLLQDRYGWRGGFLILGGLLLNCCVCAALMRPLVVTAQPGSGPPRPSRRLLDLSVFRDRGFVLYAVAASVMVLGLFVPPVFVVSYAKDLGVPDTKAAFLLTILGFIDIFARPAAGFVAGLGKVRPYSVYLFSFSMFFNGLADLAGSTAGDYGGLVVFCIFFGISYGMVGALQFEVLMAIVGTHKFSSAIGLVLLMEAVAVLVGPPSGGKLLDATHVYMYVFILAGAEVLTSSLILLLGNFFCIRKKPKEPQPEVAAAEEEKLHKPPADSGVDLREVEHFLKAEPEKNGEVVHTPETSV
T1 sequence (P35613 whole entry partner, looked up): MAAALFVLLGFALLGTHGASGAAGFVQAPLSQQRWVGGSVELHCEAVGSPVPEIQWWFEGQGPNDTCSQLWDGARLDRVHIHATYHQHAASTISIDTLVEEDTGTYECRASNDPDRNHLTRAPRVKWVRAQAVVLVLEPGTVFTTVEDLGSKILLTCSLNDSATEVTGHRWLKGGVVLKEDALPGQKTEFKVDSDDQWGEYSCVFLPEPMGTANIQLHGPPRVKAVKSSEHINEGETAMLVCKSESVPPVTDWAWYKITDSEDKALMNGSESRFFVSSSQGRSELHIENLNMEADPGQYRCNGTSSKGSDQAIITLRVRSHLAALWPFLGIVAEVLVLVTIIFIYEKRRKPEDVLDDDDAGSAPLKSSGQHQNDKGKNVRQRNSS
MCT1, sequence (P53985 whole entry): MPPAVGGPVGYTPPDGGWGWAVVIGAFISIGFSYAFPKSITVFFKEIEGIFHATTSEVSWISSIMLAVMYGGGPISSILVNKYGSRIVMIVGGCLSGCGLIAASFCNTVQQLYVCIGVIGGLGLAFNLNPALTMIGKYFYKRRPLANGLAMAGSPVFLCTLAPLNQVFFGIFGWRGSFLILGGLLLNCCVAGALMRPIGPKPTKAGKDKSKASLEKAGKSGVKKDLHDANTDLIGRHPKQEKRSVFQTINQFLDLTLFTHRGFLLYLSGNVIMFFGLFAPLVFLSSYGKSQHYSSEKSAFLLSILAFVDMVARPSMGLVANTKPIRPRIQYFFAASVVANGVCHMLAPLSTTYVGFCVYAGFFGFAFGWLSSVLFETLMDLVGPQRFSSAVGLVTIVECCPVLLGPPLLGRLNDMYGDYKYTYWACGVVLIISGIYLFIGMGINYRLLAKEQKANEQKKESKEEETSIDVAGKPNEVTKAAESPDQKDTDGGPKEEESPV
MCT1, sequence (P35613 140-385 partner): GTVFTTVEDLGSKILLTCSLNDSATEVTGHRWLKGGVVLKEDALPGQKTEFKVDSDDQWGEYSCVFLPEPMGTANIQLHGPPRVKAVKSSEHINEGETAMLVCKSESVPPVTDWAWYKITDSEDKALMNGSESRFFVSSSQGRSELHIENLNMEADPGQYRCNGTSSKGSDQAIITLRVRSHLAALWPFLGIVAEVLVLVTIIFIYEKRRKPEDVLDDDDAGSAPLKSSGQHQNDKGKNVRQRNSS

Row | SMILES | Mouse microsome % 60 min [1] [%] | IC50 (MCT4 [2]) [nM] | IC50 (MCT1; Table 2) [nM] | IC50 (MCT1; Table 3) [nM] | IC50 (MCT4 [3]) [nM] | Human microsome % 60 min [4] [%] | IC50 (MCT4 [5]) [nM]
1 | COc1cccc(-c2cc(COC(C)(C)C(=O)O)nn2Cc2ccccc2Cl)c1 [Example 14, 2-[[1-[(2-Chlorophenyl)methyl]-5-(3-methoxyphenyl)pyrazol-3-yl]methoxy]-2-methyl-propanoic acid] | 95 | 26 | > 100000 | > 100000 | 30 | 82 | 44
2 | CC(C)(OCc1cc(-c2cccc(OC3CC3)c2)n(Cc2ccccc2Cl)n1)C(=O)O [Example 39, 2-[[1-[(2-Chlorophenyl)methyl]-5-[3-(cyclopropoxy)phenyl]pyrazol-3-yl]methoxy]-2-methyl-propanoic acid] | 88 |  |  | 10000 | 5.4 | 89 | 
3 | COc1cccc(-c2c(C)c(COC(C)(C)C(=O)O)nn2Cc2ccccc2Cl)c1 [Example 54, 2-({1-[(o-Chlorophenyl)methyl]-5-(m-methoxyphenyl)-4-methyl-1H-pyrazol-3-yl}methoxy)-2-methylpropionic acid] | 95 |  |  | 27000 | 37 | 59 | 
4 | COc1ccc(-c2cc(COC(C)(C)C(=O)O)nn2Cc2ccccc2Cl)s1 [Example 64, 2-([1-[(2-Chlorophenyl)methyl]-5-(5-methoxythiophen-2-yl)-1H-pyrazol-3-yl]methoxy)-2-methylpropanoic Acid] | 84 |  |  | 45000 | 8.3 | 82 | 
5 | COc1csc(-c2cc(COC(C)(C)C(=O)O)nn2Cc2ccccc2Cl)c1 [Example 65, 2-([1-[(2-Chlorophenyl)methyl]-5-(4-methoxythiophen-2-yl)-1H-pyrazol-3-yl]methoxy)-2-methylpropanoic Acid] | 92 |  |  | 13000 | 8 | 78 | 
6 | COc1cc(-c2cc(COC(C)(C)C(=O)O)nn2Cc2ccccc2Cl)cs1 [Example 66, 2-([1-[(2-chlorophenyl)methyl]-5-(5-methoxythiophen-3-yl)-1H-pyrazol-3-yl]methoxy)-2-methylpropanoic Acid] | 83 |  |  | 45000 | 7.8 | 73 | 
7 | CCC(C)(OCc1cc(-c2cccc(OC)c2)n(Cc2ccccc2Cl)n1)C(=O)O (stereo not shown) [Example 68, 2-([1-[(2-Chlorophenyl)methyl]-5-(3-methoxyphenyl)-1H-pyrazol-3-yl]methoxy)-2-methylbutanoic Acid] | 91 |  |  | 26000 | 9.1 | 95 | 
